The values below come from ChEMBL document CHEMBL1201862, “PubChem BioAssay data set” (2004).

Data set [1] concerns the target T1, Heat shock factor protein 1 (Mus musculus, UniProt P38532).
T1 sequence (P38532 whole entry): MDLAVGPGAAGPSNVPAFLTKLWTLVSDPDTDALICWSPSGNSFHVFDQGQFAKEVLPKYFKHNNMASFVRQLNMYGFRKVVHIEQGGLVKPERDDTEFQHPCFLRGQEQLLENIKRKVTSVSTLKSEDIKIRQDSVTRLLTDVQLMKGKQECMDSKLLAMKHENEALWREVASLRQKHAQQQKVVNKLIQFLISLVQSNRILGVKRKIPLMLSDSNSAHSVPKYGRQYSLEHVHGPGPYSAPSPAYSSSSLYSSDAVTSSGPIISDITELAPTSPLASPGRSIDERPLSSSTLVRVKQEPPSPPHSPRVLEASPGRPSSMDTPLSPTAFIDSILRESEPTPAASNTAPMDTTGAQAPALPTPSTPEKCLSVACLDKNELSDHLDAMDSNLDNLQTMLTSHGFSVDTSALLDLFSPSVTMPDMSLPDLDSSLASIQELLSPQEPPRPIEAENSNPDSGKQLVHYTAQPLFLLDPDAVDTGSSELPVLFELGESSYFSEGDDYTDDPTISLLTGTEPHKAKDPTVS
Put plainly: decrease of HSF1-responsive luciferase luminescence – cell-based, NIH3T3, dose retest, confirmation (AID 2382).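 Further: NIH3T3 fibroblasts with HSF1-driven luciferase reporter stressed by proteasome inhibitor MG132; luminescence from HSF1-driven luciferase expression after 8 hours of MG132 stress.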 Format: functional.

A short description of data set [2]: NIH3T3 cell viability loss – ATP luminescence, mouse fibroblasts, counter-screen, dose response (AID 2010).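 Further: cells exposed to compound for about 90 hours before reading.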 Format: functional, cell-based. Background: Counterscreens check selectivity or assay interference.
A short description of data set [3]: Trypanosoma cruzi growth suppression in host cells – NIH3T3 host cells, beta-gal luminescence, confirmation (AID 2044).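 Further: intracellular parasites grown in NIH/3T3 mouse fibroblasts as host cells; luminescent beta-galactosidase reporter signal from transgenic T. cruzi replicating inside host cells; inhibitors lower the luminescence signal.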 Format: functional, cell-based.
A further data set has as its target Cytochrome P450 2C19 (Homo sapiens, UniProt P33261). The experiment in a line: Cytochrome panel assay with activity outcomes. Panel member name: p450-cyp2c19 Compounds with AC50 equal or less than 10 uM are considered active. Format: functional.

Each structure is given as a SMILES string. Calls of active or inactive are those of the source.

Usually EC50 stands for the concentration needed to bring the measured effect to its halfway point.

Sequence of Cytochrome P450 2C19 (P33261 whole entry): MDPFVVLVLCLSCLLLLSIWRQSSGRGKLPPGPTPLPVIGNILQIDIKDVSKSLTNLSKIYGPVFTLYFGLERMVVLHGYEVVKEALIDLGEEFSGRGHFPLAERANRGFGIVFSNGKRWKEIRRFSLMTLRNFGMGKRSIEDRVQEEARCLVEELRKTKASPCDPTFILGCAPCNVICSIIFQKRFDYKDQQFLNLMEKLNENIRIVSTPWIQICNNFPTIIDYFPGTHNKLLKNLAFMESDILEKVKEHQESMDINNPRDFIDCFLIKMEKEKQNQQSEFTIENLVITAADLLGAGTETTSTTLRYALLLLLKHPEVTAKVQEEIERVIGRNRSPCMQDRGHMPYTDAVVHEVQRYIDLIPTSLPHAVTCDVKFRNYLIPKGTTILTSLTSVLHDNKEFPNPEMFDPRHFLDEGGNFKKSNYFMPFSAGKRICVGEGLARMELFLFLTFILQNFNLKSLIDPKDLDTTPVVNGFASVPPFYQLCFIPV

`Cn1c(-c2nonc2N)nc2ccccc21`: in data set [1], the EC50 is listed as > 195 µM (not active).

With `CCc1ccccc1NC(=O)CSc1nnc(-c2ccncc2)o1`, the concentration giving a half-maximal response (EC50) in data set [1] is on record as > 195 µM (not active).

Take `Cc1cc(=O)[nH]c2c1c(=O)[nH]n2C1CC(C)N(C)CC1C` (stereo unspecified): in data set [1], the EC50 is listed as > 195 µM (not active).

As for `CC(=O)C1=C(O)C(=O)N(c2ccc(C)cc2)C1c1ccccn1` (stereo unspecified), the EC50 in data set [1] was > 195 µM (not active).

Regarding `CC1=C(C(=O)N2CCc3ccccc32)C2(CCC(C)CC2)OC1=O` (stereo unspecified), the EC50 was > 60 µM (not active) in data set [2] and 2.67 µM (active) in data set [3].

Regarding `COC(=O)c1c[nH]nc1N=C(S)Nc1ccc(Cl)c(Cl)c1`, the EC50 in data set [1] was 0.249 µM (active).

Regarding `COc1ccc(N2CC(C(=O)Nc3nnc(C4CCCCC4)s3)CC2=O)cc1` (stereo unspecified), in data set [1], the EC50 is given as > 195 µM (not active).

In the case of `CC(NC(=O)c1ccc2c(c1)OCO2)c1ccccc1` (stereo unspecified), the concentration for a half-maximal effect (EC50) in data set [1] is reported as > 195 µM (not active).

On to `CCCCSc1nc2ccc(Nc3nc(N4CCOCC4)nc(N4CCOCC4)n3)cc2s1`, for which the figures for the EC50 in data set [2] and in data set [3] were > 60 µM (not active) and 1.45 µM (active), respectively.

On to `O=C(CCc1nc(O)c2ccccc2n1)N1CCN(C/C=C/c2ccccc2)CC1`, for which the EC50 was > 30 µM (not active) in data set [2] and 0.276 µM (active) in data set [3].

For the molecule `CCCCSc1nc2sc3c(c2c(=O)n1-c1ccccc1)CCN(C)C3`, the EC50 in data set [2] was > 60 µM (not active); in data set [3], 0.143 µM (active).

Consider `CCN1CCN(C(=O)C2CCN(C(=O)c3cc4sccc4n3CC)CC2)CC1`, for which the EC50 in data set [1] is > 195 µM (not active).

Turning to `CCCC(=O)Nc1ccc(Cl)c(NC(=O)c2cccnc2)c1`, the EC50 in data set [1] was > 195 µM (not active).

In the case of `C/C(=C\C=C/[C@@H](C)C(=O)O)[C@H]1CN[C@H](C(=O)O)[C@@H]1CC(=O)O`, at Cytochrome P450 2C19, the AC50 entry is on record as “inconclusive”.

As to `CCOC(=O)c1c(C)[nH]c(C(=O)COC(=O)C2=NNC(=O)CC2)c1C`, in data set [1], the EC50 is recorded as > 195 µM (not active).

For `CCOc1ccc2nc(O)c(CN(Cc3cccs3)Cc3nnnn3C(C)(C)CC)cc2c1`, the EC50 in data set [2] was > 30 µM (not active); in data set [3], 2.56 µM (active).

For the molecule `CCOc1ccc(CNCCCSc2ncccn2)cc1OC`, the EC50 in data set [1] was > 195 µM (not active).

Consider `CCCS(=O)(=O)N1CCc2cc(OC)c(OC)cc2C1`, for which the EC50 in data set [1] is reported as > 195 µM (not active).

`Cc1cc(N2CCN(C)CC2)nc2ccc(NC(=O)c3ccccc3F)cc12`: the concentration for a half-maximal effect (EC50) in data set [2] is > 60 µM (not active); in data set [3], 1.02 µM (active).

In the case of `COc1ccc(-c2cc(C(=O)N3CCN(c4cccc(C)c4C)CC3)c3ccccc3n2)cc1OC`, the EC50 in data set [2] is > 60 µM (not active); in data set [3] it was 2.93 µM (active).

Regarding `CC(C)CCNC(=O)CN=C(S)N(Cc1ccccc1)Cc1cccnc1`, the EC50 is > 60 µM (not active) in data set [2] and 0.65 µM (active) in data set [3].

For `FC(F)(F)c1cccc(-c2cc(C3CCNCC3)n[nH]2)c1`, the values for the EC50 in data set [2] and in data set [3] were 8.6 µM (active) and 3.5 µM (active), respectively.

For `CCC(=O)N1C(C(=O)N2CCCC2)CSC1c1ccc(OC)cc1` (stereo unspecified), the EC50 in data set [1] was 32.2 µM (active).

In the case of `O=C(NCc1ccncc1)c1ccc(Cl)c(S(=O)(=O)N2CCOCC2)c1`, the concentration for a half-maximal effect (EC50) in data set [1] is on record as > 195 µM (not active).

With `CCN(Cc1ccc2c(c1)OCO2)C(=O)/C=C/c1cccc(Br)c1`, the EC50 in data set [1] is reported as > 195 µM (not active).

Regarding `O=C(Nc1ccc(F)cc1)c1ccc(O)nn1`, the EC50 in data set [1] is recorded as > 195 µM (not active).

With `CSc1nsc(SCC(=O)NCc2ccc(C)cc2)n1`, the EC50 in data set [1] is given as > 195 µM (not active).

For the molecule `CCOC(=O)Cc1cc(O)c2cc(C)ccc2n1`, the EC50 in data set [1] was 86.1 µM (active).

As to `Clc1ccc(SCCOCCN2CCOCC2)cc1`, the results for the concentration giving a half-maximal response (EC50) in data set [2] and in data set [3] were > 60 µM (not active) and 0.803 µM (active), respectively.

For `Cc1ccc(C(=O)NC(=S)Nc2ccc(Oc3ccc(Cl)cc3)cc2)cc1`, the results for the EC50 in data set [2] and in data set [3] were > 60 µM (inconclusive) and 2.09 µM (active), respectively.

`O=C(Nc1ccc(-n2ccnc2P(=O)(O)c2ccccc2)cc1)c1ccccc1Cl`: the EC50 in data set [1] is reported as > 195 µM (not active).

On to `CCCC1=Nc2cc(C(=O)NCCCN3CCN(C)CC3)ccc2Sc2ccccc21`, for which, in data set [1], the EC50 is on record as > 195 µM (not active).

As to `Cc1ccc2sc(N(CCCN(C)C)C(=O)c3ccc(S(=O)(=O)N(C)Cc4ccccc4)cc3)nc2c1C`, the EC50 in data set [2] was 11.7 µM (active); in data set [3] it was 0.451 µM (active).

Consider `CCOc1cc(C)c(Cl)cc1S(=O)(=O)n1ccnc1`, for which the values for the EC50 in data set [2] and in data set [3] were 21.4 µM (active) and 1.83 µM (active), respectively.

`COc1cc(OC)cc(C(=O)N2CCN(S(C)(=O)=O)CC2)c1`: the EC50 in data set [1] is listed as > 195 µM (not active).

With `Nc1nonc1-c1noc(-c2ccccc2Br)n1`, in data set [1], the EC50 is > 195 µM (not active).

For `O=C(Nc1ccncc1)c1ccc(-c2ccccc2)cc1`, the EC50 in data set [2] was > 60 µM (inconclusive); in data set [3] it was 1.44 µM (active).

For `CCCCOc1ccc(C2C(=O)N(C3CCCCC3)CC(=O)N2CC2CCCO2)cc1` (stereo unspecified), the EC50 in data set [1] was > 195 µM (not active).

For the molecule `CCCC1c2ccc(C)n2CCN1C(=O)Nc1ccc(F)cc1` (stereo unspecified), the EC50 in data set [1] was > 195 µM (not active).

As to `CCC(Sc1nc2cc(OC)c(OC)cc2c(=O)n1CCc1ccc(S(N)(=O)=O)cc1)C(=O)NCCOC` (stereo unspecified), the concentration giving a half-maximal response (EC50) in data set [1] is listed as > 195 µM (not active).

As for `Nc1c(S(N)(=O)=O)cc(S(N)(=O)=O)cc1S(N)(=O)=O`, at Cytochrome P450 2C19, the AC50 entry is given as “inconclusive”.

Turning to `COc1ccccc1-n1ccnc(SCC(=O)NCc2ccccc2)c1=O`, the EC50 in data set [1] is recorded as > 195 µM (not active).

Take `CCOC(=O)c1cc(-c2ccccc2)sc1NC(=O)CN1C(=O)NC(CC)(c2ccc(F)cc2)C1=O` (stereo unspecified): the results for the EC50 in data set [2] and in data set [3] were > 60 µM (not active) and 2.21 µM (active), respectively.

In the case of `Cc1nnc(N2C(=O)c3cccc4cccc(c34)C2=O)s1`, the EC50 in data set [1] is > 195 µM (not active).

Take `COc1ccc(Nc2nc(C)cc(C)c2C#N)cc1OC`: in data set [1], the EC50 was > 195 µM (not active).

Consider `CCCCCCCC(=O)Nc1cc(C(=O)NCCC)ccc1N1CCC2(CC1)CC(c1ccccc1)=NO2`, for which the EC50 is > 60 µM (not active) in data set [2] and 1.76 µM (active) in data set [3].

For the molecule `CN(Cc1ccccc1)C(=O)CCS(=O)(=O)c1ccc2c(c1)n(C)c(=O)c(=O)n2C`, in data set [1], the EC50 is > 195 µM (not active).

Turning to `CC(=O)Nc1cccc(C(=O)/C=C/c2ccc(C)cc2)c1`, in data set [1], the 50% effective concentration (EC50) is recorded as > 195 µM (not active).

For `COc1ccc(Cc2nc3c4c(ncn3n2)Oc2ccc3ccccc3c2C4c2ccc(OC)c(OC)c2)cc1` (stereo unspecified), the EC50 was > 60 µM (inconclusive) in data set [2] and 1.52 µM (active) in data set [3].

As to `O=C(CCN1CCN(c2ccccc2)CC1)c1ccc(Br)cc1`, the results for the EC50 in data set [2] and in data set [3] were > 60 µM (not active) and 1.85 µM (active), respectively.

For `Cc1ccc(N/C(SCc2ccccc2C)=C(/C#N)C(=O)NCc2ccco2)cc1C`, the values for the EC50 in data set [2] and in data set [3] were > 60 µM (not active) and 1.3 µM (active), respectively.

Turning to `CCn1c(=O)n(CC)c2cc(N3CCCC3)c(NC(=O)c3ccc(OC)c(Br)c3)cc21`, the EC50 in data set [1] is given as > 195 µM (not active).

Take `Cc1ccc(C)c(N2CCN(CCN3CCCCC3)CC2)c1`: the EC50 in data set [1] was > 195 µM (not active).

With `COc1ccc(C(=O)C2CCCN(Cc3ccc(NC(C)=O)cc3)C2)cc1OC` (stereo unspecified), in data set [1], the EC50 is 60.1 µM (active).

For `CC1CCCCN1C(=O)C(=O)c1cn(CC(=O)N2CCCCCC2)c2ccccc12` (stereo unspecified), the concentration giving a half-maximal response (EC50) in data set [2] is > 60 µM (not active); in data set [3], 1.49 µM (active).

With `CC1=C(C(=O)Nc2ccccc2)C(c2cc(CN3CCOCC3)cs2)C2=C(O)CCCC2=N1` (stereo unspecified), the EC50 in data set [1] is > 195 µM (not active).

`Cc1cccc2cc(CN(Cc3ccc(F)cc3)Cc3nnnn3C3CCCC3)c(O)nc12`: the EC50 in data set [2] is 28.9 µM (active); in data set [3], 2.38 µM (active).

Take `COc1ccc(CCN=C(S)NCc2ccc(Cl)c(Cl)c2)cc1OC`: the results for the EC50 in data set [2] and in data set [3] were > 60 µM (inconclusive) and 2.05 µM (active), respectively.

In the case of `CCCC(C)NC(=O)C1c2ccccc2Oc2ccccc21` (stereo unspecified), the EC50 in data set [1] is recorded as > 195 µM (not active).

As to `O=[N+]([O-])c1ccc(S(=O)(=O)N2CCN(Cc3c[nH]c4ccccc34)CC2)cc1`, the concentration giving a half-maximal response (EC50) was > 60 µM (not active) in data set [2] and 1.31 µM (active) in data set [3].

Take `Nc1ccc2oc(C3CCCCC3)nc2c1`: the EC50 in data set [1] is > 195 µM (not active).

`CC(C)CCc1c(O)nc(SCC(=O)N2CCCCCC2)nc1O`: in data set [1], the EC50 was > 195 µM (not active).

As for `c1ccc(Cc2nc3ccccc3o2)cc1`, in data set [1], the EC50 was > 195 µM (not active).

Take `O=[N+]([O-])c1ccc(/N=C/c2sc3ccccc3c2O)cc1`: the EC50 in data set [1] is reported as > 195 µM (not active).

As for `O=C(N/N=C/c1ccc(Br)o1)c1ccc2c(c1)OCCO2`, the EC50 in data set [1] is > 195 µM (not active).

As for `Cc1occc1C(=O)N/N=C/c1ccc(-c2cccc([N+](=O)[O-])c2)o1`, the results for the concentration for a half-maximal effect (EC50) in data set [2] and in data set [3] were > 60 µM (not active) and 2.05 µM (active), respectively.

Regarding `Cn1c(C(C#N)C(=O)c2sc3ccccc3c2Cl)nc2ccccc21` (stereo unspecified), the EC50 in data set [1] is listed as > 195 µM (not active).
